Assay results reported in patent US20200360306A1, “USE OF CO-CRYSTALS OF TRAMADOL AND CELECOXIB FOR TREATING PAIN WHILE REDUCING THE ABUSE LIABILITY OF TRAMADOL” (ESTEVE PHARMACEUTICALS, S.A., priority 2019, published 2020).
Values joined by “and” are separate entries in the source; they are usually repeats but may differ in a detail not shown here. Identical values can stand only once.

Test: Single dose, randomized, open-label, 4-period crossover pharmacokinetic study; plasma tramadol and O-desmethyltramadol (M1) by HPLC-MS/MS; AQ=Cmax/Tmax
Conditions: healthy subjects; for AQ for tramadol, comparison between treatments (statistical significance): 4-way cross-over study; for O-desmethyltramadol AQ / O-desmethyltramadol Cmax / O-desmethyltramadol Tmax / Tramadol AQ / Tramadol Cmax: 2 × 100 mg co-crystal E-58425 tablets (Treatment 1), oral
Description: The study was a single center, randomized, single dose, open-label, 4-period, 4-sequence, crossover design in healthy male and female subjects.
The products were administered to 36 subjects. The wash-out between the periods for each subject was of 7 calendar days.
Separate blood samples were obtained for analysis of tramadol/M1 metabolite and for analysis of celecoxib (data not shown).
As soon as possible following blood collection, samples were centrifuged at a temperature of 4° C. nominal and at approximately 1500 g for 10 minutes. The plasma obtained was separated into duplicate polypropylene culture tubes. […] The samples were frozen in an upright position and retained in the clinic's freezers at a temperature of −20° C. nominal until sent on dry ice to the bioanalytical facility for assay.
The experimental human plasma samples were assayed for tramadol and M1 metabolite (O-desmethyltramadol) and also for celecoxib (data not shown) using two different validated bioanalytical methods by HPLC with MS/MS detection.
Sample pre-treatment involved the liquid-liquid extraction of tramadol and O-desmethyltramadol from 0.100 mL of human plasma; tramadol-D6 and O-desmethyltramadol-D6 were used as the internal standards (IS1 and IS2 respectively). The compounds were identified and quantified using Hilic HPLC with MS/MS detection over a theoretical concentration range of 2.00 ng/mL to 800.00 ng/mL for tramadol and 0.500 ng/mL to 200.00 ng/mL for O-desmethyltramadol. The concentrations were calculated using peak area ratios and the linearity of the calibration curve was determined using a weighted (1/x^2) linear (y=mx+b) least squares regression analysis for tramadol and for O-desmethyltramadol.
Pharmacokinetic parameters were estimated from the individual plasma concentration—time profile for each subject. The main absorption and disposition parameters were obtained using a non-compartmental approach with a log-linear terminal phase assumption. Maximum observed plasma concentration (Cmax) and the time of maximum observed plasma concentration (Tmax) were obtained directly from the experimental data. The trapezoidal rule was used to estimate the area under the curve (AUC; data not shown) and the terminal phase was estimated by maximizing the coefficient of determination estimated from the log-linear regression model (T1/2; data not shown). The abuse quotient was obtained using the following expression AQ=Cmax/Tmax.

[1] = Table 3 summary, oral co-crystal E-58425 tablets

Question: What does the source list for `COc1cccc([C@]2(O)CCCC[C@@H]2CN(C)C)c1.Cc1ccc(-c2cc(C(F)(F)F)nn2-c2ccc(S(N)(=O)=O)cc2)cc1.Cl` (racemic) [co-crystal E-58425, co-crystal of (rac)-tramadol.HCl and celecoxib]?
Answer: AQ for tramadol, comparison between treatments (statistical significance): better (lower) AQ ratio; AQ for tramadol, comparison between treatments (statistical significance) (listed as Co-crystal E-58425): lower than those obtained for Ultram® and for Ultram® and Celebrex® taken concomitantly; O-desmethyltramadol AQ (Mean, n=33): 13.5 ng/(mL · h); O-desmethyltramadol Cmax (Mean, n=33): 54.5 ng/mL; O-desmethyltramadol Tmax (Mean, n=33): 4.4 h; Tramadol AQ (Mean, n=33): 70.5 ng/(mL · h); Tramadol Cmax (Mean, n=33): 214.3 ng/mL; O-desmethyltramadol AQ (Median, n=33): 13.3 ng/(mL · h); O-desmethyltramadol Cmax (Median, n=33): 55.4 ng/mL; Tramadol AQ (Median, n=33): 70.7 ng/(mL · h); Tramadol Cmax (Median, n=33): 207.5 ng/mL; AQ M1 Mean [1]: 13.5; AQ Tramadol Mean [1]: 70.5; O-desmethyltramadol Tmax (individual subject values, fasting, plasma): 3.00 h and 4.00 h
